The target of this assay is T1, human ferroportin (Homo sapiens, UniProt Q9NP59).
T1 construct: luciferase reporter (probably NanoLuc: read with the Nano-Glo Luciferase Assay System); expressed in transfected cells; host or cells: CHO cells, stably transfected, doxycycline-inducible expression
T1 sequence (Q9NP59 1-571): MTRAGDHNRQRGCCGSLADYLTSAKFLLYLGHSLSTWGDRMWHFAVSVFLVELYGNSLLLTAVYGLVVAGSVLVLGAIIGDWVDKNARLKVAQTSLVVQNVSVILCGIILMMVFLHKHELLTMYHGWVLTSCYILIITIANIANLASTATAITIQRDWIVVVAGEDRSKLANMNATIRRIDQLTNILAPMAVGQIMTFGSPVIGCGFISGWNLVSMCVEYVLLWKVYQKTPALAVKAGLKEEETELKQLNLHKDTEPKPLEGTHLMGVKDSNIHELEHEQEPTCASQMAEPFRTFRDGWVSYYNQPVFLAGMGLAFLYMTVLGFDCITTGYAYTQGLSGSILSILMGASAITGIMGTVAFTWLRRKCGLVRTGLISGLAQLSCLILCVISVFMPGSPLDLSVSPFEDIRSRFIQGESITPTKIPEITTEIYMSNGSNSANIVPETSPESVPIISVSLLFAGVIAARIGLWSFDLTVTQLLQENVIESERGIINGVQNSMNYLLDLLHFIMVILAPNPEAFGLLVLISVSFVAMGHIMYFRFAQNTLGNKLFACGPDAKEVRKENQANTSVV
Put plainly: In-vitro ferroportin internalization assay (luciferase reporter). It is filed as cell-based. The note with it: average pEC50; stably-transfected CHO cell line expressing human ferroportin tagged to a luciferase reporter; 6 h incubation with test compounds. The protocol: The protocol for this assay is generally as described in WO2018/128828, incorporated herein by reference in its entirety. Functional internalization of ferroportin protein was measured using a stably-transfected CHO cell line expressing the human ferroportin tagged to a luciferase reporter. Cells were plated for 24 h in the presence of ferric ammonium citrate (FAC). Ferroportin protein expression was induced with doxycycline for 24 h. The next day, the compounds were added. Test compounds were dissolved in DMSO. Cells were incubated with the test compounds for 6 h, and subsequently luciferase activity was measured using the Nano-Glo Luciferase Assay System and Glomax (Promega, Madison, Wis.).
The average pEC50 was determined for the test compounds.

SMILES strings stand for the structures. A value given as a limit tells only on which side of the number the result lay.

Compound `Fc1cccnc1CNc1ncnc2oc(CCNCCc3nc4ccccc4[nH]3)nc12` [Compound 2, 2-(2-{[2-(1H-1,3-benzodiazol-2-yl)ethyl]amino}ethyl)-N-[(3-fluoropyridin-2-yl)methyl]-[1,3]oxazolo[5,4-d]pyrimidin-7-amine] had a pEC50 of 7.3.

As for `CC(CNCCc1nc2c(NCc3ncccc3F)ncnc2s1)c1nc2ccccc2[nH]1` (stereo not shown) [Compound 41, 2-(2-{[2-(1H-1,3-benzodiazol-2-yl)propyl]amino}ethyl)-N-[(3-fluoropyridin-2-yl)methyl]-[1,3]thiazolo[5,4-d]pyrimidin-7-amine], the negative logarithm of the EC50 (pEC50) worked out at 7.2.

The compound `Fc1cccnc1CNc1ncnc2sc(CCNCCc3ncc(-c4ccccn4)[nH]3)nc12` [Compound 65, N-[(3-fluoropyridin-2-yl)methyl]-2-[2-({2-[5-(pyridin-2-yl)-1H-imidazol-2-yl]ethyl}amino)ethyl]-[1,3]thiazolo[5,4-d]pyrimidin-7-amine] showed a negative-log EC50 (pEC50) of 6.2.

With `Fc1cccnc1CNc1ncnc2sc(CCNCCc3nc4cnccc4[nH]3)nc12` [Compound 37, N-[(3-fluoropyridin-2-yl)methyl]-2-{2-[(2-{1H-imidazo[4,5-c]pyridin-2-yl}ethyl)amino]ethyl}-[1,3]thiazolo[5,4-d]pyrimidin-7-amine], the pEC50 came to 5.6.

For `C[C@@H](CNCCc1nc2c(NCc3ncccc3F)ncnc2s1)c1nc2ccccc2[nH]1` [Compound 53, 2-(2-{[(2S)-2-(1H-1,3-benzodiazol-2-yl)propyl]amino}ethyl)-N-[(3-fluoropyridin-2-yl)methyl]-[1,3]thiazolo[5,4-d]pyrimidin-7-amine], the pEC50 is on record as 7.3.

Compound `Fc1cccnc1CNc1nccc2oc(CCNCCc3ncc(Cc4ccccc4)[nH]3)nc12` [Compound 62] gave a pEC50 of 7.7.

Compound `c1ccc(CNc2ncnc3sc(CCNCCc4nc5ccccc5[nH]4)nc23)nc1` [Compound 5, 2-(2-{[2-(1H-1,3-benzodiazol-2-yl)ethyl]amino}ethyl)-N-[(pyridin-2-yl)methyl]-[1,3]thiazolo[5,4-d]pyrimidin-7-amine] returned a pEC50 of 6.8.

For the compound `Fc1cccnc1CNc1ncnc2sc(CCNCCc3ncc(-c4ccccc4)[nH]3)nc12` [Compound 35, N-[(3-fluoropyridin-2-yl)methyl]-2-(2-{[2-(5-phenyl-1H-imidazol-2-yl)ethyl]amino}ethyl)-[1,3]thiazolo[5,4-d]pyrimidin-7-amine], the pEC50 was found to be 7.1.

The compound `O=C(CCC1(CCc2cn(CCCNC(=O)c3ccc4c(c3)C3(OC4=O)c4ccc(O)cc4Oc4cc(O)ccc43)nn2)N=N1)Nc1ccc2[nH]c(CCNCCc3nc4c(NCc5ncccc5F)ncnc4s3)nc2c1` [Compound 47, N-[3-(4-{2-[3-(2-{[2-(2-{[2-(7-{[(3-fluoropyridin-2-yl)methyl]amino}-[1,3]thiazolo[5,4-d]pyrimidin-2-yl)ethyl]amino}ethyl)-1H-1,3-benzodiazol-5-yl]carbamoyl}ethyl)-3H-diazirin-3-yl]ethyl}-1H-1,2,3-triazol-1-yl)propyl]-3′,6′-dihydroxy-3-oxo-3H-spiro[2-benzofuran-1,9′-xanthene]-6-carboxamide] returned a pEC50 of 5.8.

Take `Fc1cccnc1CNc1ncnc2sc([C@H](F)CNCCc3nc4ccccc4[nH]3)nc12` [Compound 77, 2-[(1R)-2-{[2-(1H-1,3-benzodiazol-2-yl)ethyl]amino}-1-fluoroethyl]-N-[(3-fluoropyridin-2-yl)methyl]-[1,3]thiazolo[5,4-d]pyrimidin-7-amine]: the pEC50 was determined as 7.8.

`[N-]=[N+]=Nc1cccnc1CNc1ncnc2sc(CCNCCc3nc4ccccc4[nH]3)nc12` [Compound 17, N-[(3-azidopyridin-2-yl)methyl]-2-(2-{[2-(1H-1,3-benzodiazol-2-yl)ethyl]amino}ethyl)-[1,3]thiazolo[5,4-d]pyrimidin-7-amine] showed a pEC50 of 7.7.

`c1cnc(CNc2ncnc3sc(CCNCCc4nc5ccccc5[nH]4)nc23)nc1` [Compound 9, 2-(2-{[2-(1H-1,3-benzodiazol-2-yl)ethyl]amino}ethyl)-N-[(pyrimidin-2-yl)methyl]-[1,3]thiazolo[5,4-d]pyrimidin-7-amine]: the pEC50 came out at 6.3.

Compound `Cc1cnc(CCNCCc2nc3c(NCc4ncccc4F)nccc3o2)[nH]1` [Compound 56, N-[(3-fluoropyridin-2-yl)methyl]-2-(2-{[2-(5-methyl-1H-imidazol-2-yl)ethyl]amino}ethyl)-[1,3]oxazolo[4,5-c]pyridin-4-amine] displayed a pEC50 of 6.7.

With `Cc1nc(Cc2ccccc2)c(CNCCc2nc3c(NCc4ncccc4F)nccc3o2)[nH]1` [Compound 78, 2-(2-{[(4-benzyl-2-methyl-1H-imidazol-5-yl)methyl]amino}ethyl)-N-[(3-fluoropyridin-2-yl)methyl]-[1,3]oxazolo[4,5-c]pyridin-4-amine], the negative-log EC50 (pEC50) is reported as less than 5.

`Fc1cccnc1CNc1ncnc2sc(CCNCc3nc4ccccc4[nH]3)nc12` [Compound 7, 2-(2-{[(1H-1,3-benzodiazol-2-yl)methyl]amino}ethyl)-N-[(3-fluoropyridin-2-yl)methyl]-[1,3]thiazolo[5,4-d]pyrimidin-7-amine] returned a negative-log EC50 (pEC50) of 6.7.

Take `Oc1nc(NCc2ncccc2F)c2nc([C@H](F)CNCCc3nc4ccccc4[nH]3)sc2n1` [Compound 83, 2-[(1R)-2-{[2-(1H-1,3-benzodiazol-2-yl)ethyl]amino}-1-fluoroethyl]-7-{[(3-fluoropyridin-2-yl)methyl]amino}-[1,3]thiazolo[5,4-d]pyrimidin-5-ol]: the negative logarithm of the EC50 (pEC50) is reported as 7.1.

`Cc1nc(-c2ccc(Cl)s2)c(CNCCc2nc3c(NCc4ncccc4F)ncnc3s2)[nH]1` [Compound 70, 2-[2-({[4-(5-chlorothiophen-2-yl)-2-methyl-1H-imidazol-5-yl]methyl}amino)ethyl]-N-[(3-fluoropyridin-2-yl)methyl]-[1,3]thiazolo[5,4-d]pyrimidin-7-amine] gave a pEC50 of 5.6.

`Fc1cccnc1CNc1ncnc2sc(C(F)CNCCc3nc4ccccc4[nH]3)nc12` (stereo not shown) [Compound 30, 2-(2-{[2-(1H-1,3-benzodiazol-2-yl)ethyl]amino}-1-fluoroethyl)-N-[(3-fluoropyridin-2-yl)methyl]-[1,3]thiazolo[5,4-d]pyrimidin-7-amine] gave a pEC50 of 7.3.

`Fc1ccc(-c2cnc(CCNCCc3nc4c(NCc5ncccc5F)ncnc4s3)[nH]2)cc1` [Compound 68, 2-[2-({2-[5-(4-fluorophenyl)-1H-imidazol-2-yl]ethyl}amino)ethyl]-N-[(3-fluoropyridin-2-yl)methyl]-[1,3]thiazolo[5,4-d]pyrimidin-7-amine] showed a pEC50 of 5.8.

`C[C@@H](Cc1nc2c(NCc3ncccc3F)ncnc2s1)NCCc1nc2ccccc2[nH]1` [Compound 28, 2-[(2S)-2-{[2-(1H-1,3-benzodiazol-2-yl)ethyl]amino}propyl]-N-[(3-fluoropyridin-2-yl)methyl]-[1,3]thiazolo[5,4-d]pyrimidin-7-amine]: the pEC50 was 6.3.

The compound `Fc1cccnc1CNc1ncnc2sc(CCNCC(F)c3nc4ccccc4[nH]3)nc12` (stereo not shown) [Compound 45, 2-(2-{[2-(1H-1,3-benzodiazol-2-yl)-2-fluoroethyl]amino}ethyl)-N-[(3-fluoropyridin-2-yl)methyl]-[1,3]thiazolo[5,4-d]pyrimidin-7-amine] yielded a pEC50 of 6.4.

`Fc1cccnc1CNc1nccc2oc(C(F)(F)CNCCc3nc4ccccc4[nH]3)nc12` [Compound 81, 2-(2-{[2-(1H-1,3-benzodiazol-2-yl)ethyl]amino}-1,1-difluoroethyl)-N-[(3-fluoropyridin-2-yl)methyl]-[1,3]oxazolo[4,5-c]pyridin-4-amine]: the negative logarithm of the EC50 (pEC50) was determined as 6.3.

In turn, `COC(=O)c1ccc2[nH]c(CCNCCc3nc4c(NCc5ncccc5F)ncnc4s3)nc2c1` [Compound 27, Methyl 2-(2-{[2-(7-{[(3-fluoropyridin-2-yl)methyl]amino}-[1,3]thiazolo[5,4-d]pyrimidin-2-yl)ethyl]amino}ethyl)-1H-1,3-benzodiazole-5-carboxylate] gave a pEC50 of 6.2.

Turning to `Fc1cccnc1CNc1ncnc2sc(C3CN(CCc4nc5ccccc5[nH]4)C3)nc12` [Compound 20, 2-{1-[2-(1H-1,3-benzodiazol-2-yl)ethyl]azetidin-3-yl}-N-[(3-fluoropyridin-2-yl)methyl]-[1,3]thiazolo[5,4-d]pyrimidin-7-amine], the pEC50 is 7.5.

Turning to `C#CCCC1(CCC(=O)NCc2ccc3[nH]c(CCNCCc4nc5c(NCc6ncccc6F)ncnc5s4)nc3c2)N=N1` [Compound 39, 3-[3-(but-3-yn-1-yl)-3H-diazirin-3-yl]-N-{[2-(2-{[2-(7-{[(3-fluoropyridin-2-yl)methyl]amino}-[1,3]thiazolo[5,4-d]pyrimidin-2-yl)ethyl]amino}ethyl)-1H-1,3-benzodiazol-5-yl]methyl}propanamide], the negative logarithm of the EC50 (pEC50) stood at 6.9.

The values are drawn from patent publication US11286243B2 (GLOBAL BLOOD THERAPEUTICS, INC., priority 2018, dated 2022).
